The source made the active and inactive calls.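 The calls were made as follows: active = compounds giving half or more protection of infected cells from virus-caused growth loss, again on retest; inactive = the rest.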
Test system: CEM cells HIV-1 protection, formazan growth assay
Assay: NCI AIDS Antiviral Assay
Settings: for IC50: measured here: growth of uninfected CEM cells
In short: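 Category rules: moderately active means at least 50% protection on retest, and confirmed active means 100% protection reproducibly. The underlying data came from a formazan growth assay in HIV-1-infected CEM cells.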

| SMILES | EC50 [µM] | IC50 [µM] | outcome |
| --- | --- | --- | --- |
| CCCCCCCCCCCCCCCCOC1OC(CS(=O)(=O)S(=O)(=O)CC2OC(OCCCCCCCCCCCCCCCC)C(O)C(O)C2O)C(O)C(O)C1O (centres undefined) | > 7.94 | – | – |
| O=S1(=O)CCN(c2ccccc2CC(c2c[nH]c3ccccc23)c2c[nH]c3ccccc23)CC1 | > 5.75 | > 5.75 | – |
| N/N=C1/C(=O)N(c2ccc(Cl)cc2)C(=O)C(=O)C1c1nc2ccccc2s1 (centres undefined) | > 18.2 | > 18.2 | – |
| COc1ccc(NC(=O)C(C)Oc2ccc(OCC3CCCCC3)cc2)cc1 (centres undefined) | > 26.3 | > 26.3 | – |
| CCOP(=O)(OCC)/C(F)=C/c1ccccc1 | > 200 | > 200 | – |
| N#C/C(=C\c1ccc(O)c(O)c1)C(=O)OCc1ccccc1COC(=O)/C(C#N)=C/c1ccc(O)c(O)c1 | > 200 | 8.71 | – |
| CN1CCCC1=NC#N | > 200 | > 200 | – |
| Cc1ccc(-c2c3nc(c(-c4ccc(C)cc4)c4ccc([nH]4)c(-c4ccc(C)cc4)c4nc(c(-c5ccncc5)c5ccc2[nH]5)C=C4)C=C3)cc1.Cc1ccc(-c2c3nc(c(-c4ccc(C)cc4)c4ccc([nH]4)c(-c4ccc(C)cc4)c4nc(c(-c5ccncc5)c5ccc2[nH]5)C=C4)C=C3)cc1.Cc1ccc(-c2c3nc(c(-c4ccc(C)cc4)c4ccc([nH]4)c(-c4ccc(C)cc4)c4nc(c(-c5ccncc5)c5ccc2[nH]5)C=C4)C=C3)cc1.Cc1ccc(-c2c3nc(c(-c4ccc(C)cc4)c4ccc([nH]4)c(-c4ccc(C)cc4)c4nc(c(-c5ccncc5)c5ccc2[nH]5)C=C4)C=C3)cc1.O=S(=O)([O-])C(F)(F)F.[Pt] | > 25.1 | 14.1 | – |
| S=c1sc2ccccc2n1CN1CCCC1 | > 200 | 102 | – |
| CC(C)(C)[Si](C)(C)OCC1OC(n2ccc(=O)[nH]c2=O)C(OC(=S)Oc2ccccc2)C1O[Si](C)(C)C(C)(C)C (centres undefined) | > 200 | 2 | – |
| CCCCOC(=O)N(CCCC)c1ccccc1 | > 200 | 151 | – |
| CC12Nc3ccccc3C1=C(c1ccccc1)CC1C(=O)OC(=O)C12 (centres undefined) | > 15.8 | > 15.8 | – |
| COc1cc(OC)c(/C=C2\N=C(C)N(Nc3nnc(NN4C(=O)/C(=C/c5c(OC)cc(OC)cc5OC)N=C4C)c4ccccc34)C2=O)c(OC)c1 | – | – | inactive |
| O=[N+]([O-])c1ccc(OCn2ncc3ccc([N+](=O)[O-])cc32)cc1 | > 200 | > 200 | – |
| O=c1oc2ccccc2c(O)c1C1c2ccccc2Oc2c1c(=O)oc1ccccc21 (centres undefined) | – | – | inactive |
| Nc1ccc(S2(c3ccc(N)cc3)C=C(c3ccccc3)C(c3ccccc3)=C2)cc1 | > 200 | > 200 | – |
| CCN(CC)CCOc1ccc(/C(C#N)=C/c2ccc(SC(C)C)cc2)cc1 | > 100 | 1.41 | – |
| COC(=O)CC(c1ccc(OC)cc1)C(CC(=O)OC)c1ccc(OC)cc1 (centres undefined) | > 67.6 | 60.3 | – |
| O=C1NC(=O)C(C(=O)C(=O)Nc2ccc(Cl)cc2Cl)C(=O)N1 | > 275 | > 275 | – |
| CCc1cccc(CC)c1NC1=CC(=O)C(=O)c2ccccc21 | > 23.4 | > 23.4 | – |
| CCCCCCCCCCCCNP(=S)(NCCCCCCCCCCCC)NCCCCCCCCCCCC | > 100 | > 100 | – |
| COC(=O)c1c2c(cc3c1CC1(Cc4cc5c(c(C)c4C1)CCC5)C3)CCC2 (centres undefined) | > 200 | > 200 | – |
| CC(=O)NNc1nc(C)c(C(=O)/C=C/C=C/c2ccccc2)s1 | > 21.9 | > 21.9 | – |
| CCOC(=O)C1=C(C)/C(=C\c2[nH]c(C)c(C(=O)OCC)c2C)N=C1C | > 200 | > 200 | – |
| COC(=O)[C@@H]1C[C@]2(CC=O)c3ccccc3N(S(=O)(=O)c3ccccc3)[C@@H]2N1C(=O)OC | > 100 | 70.8 | – |
| CC(=O)CC(=O)CCCC(=O)Nc1ccc(Cl)cc1Cl | – | – | inactive |
| COc1ccc2c(c1)OC[C@@H]1c3cc(O)c(OCc4ccccc4)cc3O[C@H]21 | 9.12 | 24 | – |
| COc1ccc(C2CC(c3c(O)ccc4ccccc34)=NN2C(C)=O)cc1OC (centres undefined) | > 200 | 46.8 | – |
| COc1ccccc1NC(=O)/C(=C/n1c(=S)[nH]c2ccccc21)C(C)=O | > 200 | > 200 | – |
